{
  "source": "patent US20160215348A1",
  "about": "“GENE EXPRESSION BIOMARKERS AND THEIR USE FOR DIAGNOSTIC AND PROGNOSTIC APPLICATION IN PATIENTS POTENTIALLY IN NEED OF HDAC INHIBITOR TREATMENT” (4SC AG, priority 2013, published 2016)",
  "key": {"[1]": {"tested_on": "18S", "test": "Gene expression in peripheral blood of healthy donors treated ex vivo", "type": "cell-based, human", "settings": "standardized to 0 h", "method": "(§1) Hatched columns relate to blood, black columns relate to HepG2 cells, white boxes relate to HT 29 cells. Values are standardized to the value at 0 h.\n(§2) Samples were obtained and gene expressions were determined with the methods as described herein below. The results are shown in below table 3 and FIGS. 2 and 3\n(§3) The above values represent a mean value which was determined on the basis of 2 biological replicates, for each of which 3 technical replicates were prepared. […] The level of gene expression determined in peripheral blood samples can be correlated with a certain level of activity of HDAC in the diseased cells, e.g. by applying an appropriate conversion factor or conversion table, which may be determined for each specific disease, and/or patient group.\n(§4) The High-Capacity cDNA Reverse Transcription Kit (Applied Biosystems) was used for reverse transcription of total RNA into single stranded cDNA with the aid of random hexamer primers according to the manufacturer's instructions. Briefly, for the reaction mix total RNA was mixed with random primers in excess, 4 mM dNTP Mix, 2.5 U/reaction, reverse transcriptase and nuclease free water. The reverse transcription took place in a thermal cycler under the following conditions: 25° C. for 10 min, 37° C. for 120 min, 85° C. for 5 min, followed by 4° C. for cooling down the reaction. The reverse transcription can be done in principle as well with other reverse transcriptases, primers and temperature protocols. Whenever possible, 250 ng total RNA were reverse transcribed if not available, lower amounts were used.\n(§5) Custom TaqMan® Arrays (Applied Biosystems) in Format 16 were designed for the gene expression analysis of biomarkers of the present invention and housekeeping genes as outlined in table 4. These arrays allow for qPCR analysis of 8 samples per card. Of course, all reactions can be done as well by conventional qPCR analysis with specific primers."}, "[2]": {"tested_on": "CCDC43", "test": "Gene expression in peripheral blood of healthy donors treated ex vivo", "type": "cell-based, human", "settings": "standardized to 0 h", "method": "as §1, §2, §3, §4, §5"}, "[3]": {"tested_on": "DPP3", "test": "Gene expression in peripheral blood of healthy donors treated ex vivo", "type": "cell-based, human", "settings": "standardized to 0 h", "method": "as §1, §2, §3, §4, §5"}, "[4]": {"tested_on": "GAPDH", "test": "Gene expression in peripheral blood of healthy donors treated ex vivo", "type": "cell-based, human", "settings": "standardized to 0 h", "method": "as §1, §2, §3, §4, §5"}, "[5]": {"tested_on": "HIST2H4A/B", "test": "Gene expression in peripheral blood of healthy donors treated ex vivo", "type": "cell-based, human", "settings": "standardized to 0 h", "method": "as §1, §2, §3, §4, §5"}, "[6]": {"tested_on": "KDELC2", "test": "Gene expression in peripheral blood of healthy donors treated ex vivo", "type": "cell-based, human", "settings": "standardized to 0 h", "method": "as §1, §2, §3, §4, §5"}, "[7]": {"tested_on": "MICALL1", "test": "Gene expression in peripheral blood of healthy donors treated ex vivo", "type": "cell-based, human", "settings": "standardized to 0 h", "method": "as §1, §2, §3, §4, §5"}, "[8]": {"tested_on": "TBP", "test": "Gene expression in peripheral blood of healthy donors treated ex vivo", "type": "cell-based, human", "settings": "standardized to 0 h", "method": "as §1, §2, §3, §4, §5"}, "[9]": {"tested_on": "ZFP64", "test": "Gene expression in peripheral blood of healthy donors treated ex vivo", "type": "cell-based, human", "settings": "standardized to 0 h", "method": "as §1, §2, §3, §4, §5"}, "[10]": {"tested_on": "hepatocellular cancer (HCC)", "test": "SHELTER clinical trial, overall survival (Kaplan-Meier) by baseline ZFP64 expression", "type": "in vivo, human", "method": "Resminostat was explored as monotherapy and in combination with sorafenib. Patients with advanced HCC (BCLC staging B/C) were included in a multi-center, two-arm trial. […] A dose escalation of resminostat (range 200 to 600 mg) combined with Sorafenib (400 or 800 mg) was performed. Arm A investigated the drug combination (resminostat+sorafenib), Arm B the monotherapy of resminostat (600 mg). Primary objective was the progression-free survival rate (PFSR) after 12 weeks (w). Secondary objectives included safety, tolerability, tumor response, PFS, TTP, OS and the analyses of PK and biomarkers (BM), incl. HDAC enzyme inhibition, histone acetylation and gene expressions in peripheral blood. Based on the results and indications seen in the analysis in example 3a, the dCt values of ZFP64 at baseline were treated with the method described here for determining the split between gene expression groups. Data was processed as follows: Gene expression data of the genes of interest was gathered as real time PCR dCt values relative to the expression of housekeeping genes for a specific time point, e.g. at baseline prior to treatment start. […] Said two groups were then compared in Kaplan-Meier analyses for OS, PFS in order to identify a statistically significant difference that separates the patients' probability for OS, PFS."}, "[11]": {"tested_on": "ZFP64", "test": "ZFP64 gene expression in diverse cancer cell lines (FIG. 4c)", "type": "cell-based", "settings": "10 μM; 0, 2, 5 and 24 hours", "excerpt": "(§6) To determine RNA expression levels of ZFP64 in different cancer cell lines and PBMC, the cell membranes were chemically disrupted with a buffer containing guanidine isothiocycanate, which lyses the cells and supports the binding of RNA to a silica membrane and RNA was extracted via a filter-based spin column."}, "[12]": {"tested_on": "ZFP64", "test": "ZFP64 fold change in HepG2, whole blood and PBMCs of a healthy donor (FIG. 4d)", "type": "cell-based, human", "settings": "HepG2, whole blood, PBMC; resminostat 5 μM (combination: + sorafenib 5 μM); vs DMSO control", "method": "For comparison reasons, the siRNA experiment (ZFP64 knockdown) on HepG2 cells is shown. The samples are compared to a DMSO control and the fold change is determined with the exception of the siRNA samples, which are compared to the resminostat sample.\nas §6"}, "[13]": {"settings": "SHELTER patients on resminostat 600 mg or resminostat 600 mg + sorafenib 400 mg, pooled, split at 75th percentile"}, "[14]": {"settings": "SHELTER, single arm, resminostat 600 mg (combination: + sorafenib 400 mg), split at 75th percentile"}, "[15]": {"settings": "all available SHELTER patients (monotherapy and sorafenib combination arms pooled), split 60% high/40% low"}},
  "data": [
    {"smiles": "CN(C)Cc1ccc(S(=O)(=O)n2ccc(/C=C/C(=O)NO)c2)cc1", "note": "[resminostat, (E)-3-(1-(4-((dimethylamino)methyl)phenylsulfonyl)-1H-pyrrol-3-yl)-N-hydroxyacrylamide]", "values": [
      {"measurement": "Expression level, 18s (housekeeping gene)", "setting": "[1]; 2 h", "value": 0.83},
      {"measurement": "Expression level, 18s (housekeeping gene)", "setting": "[1]; 5 h", "value": 0.66},
      {"measurement": "Expression level, CCDC43", "setting": "[2]; 2 h", "value": 0.29},
      {"measurement": "Expression level, CCDC43", "setting": "[2]; 5 h", "value": 0.35},
      {"measurement": "Expression level, DPP3", "setting": "[3]; 2 h", "value": 0.57},
      {"measurement": "Expression level, DPP3", "setting": "[3]; 5 h", "value": 0.29},
      {"measurement": "Expression level, GAPDH (housekeeping gene)", "setting": "[4]; 2 h", "value": 1.16},
      {"measurement": "Expression level, GAPDH (housekeeping gene)", "setting": "[4]; 5 h", "value": 1.38},
      {"measurement": "Expression level, HIST2H4A/B", "setting": "[5]; 2 h", "value": 2.59},
      {"measurement": "Expression level, HIST2H4A/B", "setting": "[5]; 5 h", "value": 4.11},
      {"measurement": "Expression level, KDELC2", "setting": "[6]; 2 h", "value": 0.47},
      {"measurement": "Expression level, KDELC2", "setting": "[6]; 5 h", "value": 0.07},
      {"measurement": "Expression level, MICALL1", "setting": "[7]; 2 h", "value": 0.30},
      {"measurement": "Expression level, MICALL1", "setting": "[7]; 5 h", "value": 0.10},
      {"measurement": "Expression level, TBP (housekeeping gene)", "setting": "[8]; 2 h", "value": 1.03},
      {"measurement": "Expression level, TBP (housekeeping gene)", "setting": "[8]; 5 h", "value": 1.11},
      {"measurement": "Expression level, ZFP64", "setting": "[9]; 2 h", "value": 0.24},
      {"measurement": "Expression level, ZFP64", "setting": "[9]; 5 h", "value": 0.15},
      {"measurement": "median OS (high ZFP64 expression)", "setting": "[10]; [13]", "value": 9.4, "unit": "months"},
      {"measurement": "median OS (low ZFP64 expression)", "setting": "[10]; [13]", "value": 5.1, "unit": "months"},
      {"measurement": "overall median OS for the two groups", "setting": "[10]; SHELTER, single arm, resminostat 600 mg (combination: + sorafenib 400 mg)", "value": 3.7, "unit": "months"},
      {"measurement": "median OS for high ZFP64 expression", "setting": "[10]; [14]", "value": 7.0, "unit": "months"},
      {"measurement": "median OS for low ZFP64 expression", "setting": "[10]; [14]", "value": 0.9, "unit": "months"},
      {"measurement": "median OS (high ZFP64 expression)", "setting": "[10]; [15]", "value": 8, "unit": "months"},
      {"measurement": "median OS (low ZFP64 expression)", "setting": "[10]; [15]", "value": 3.9, "unit": "months"},
      {"measurement": "ZFP64 expression in several cancer cell lines (FIG. 4c)", "setting": "[11]", "value": "down-regulating effect"},
      {"measurement": "Regulation of ZFP64, fold change (FIG. 4d)", "setting": "[12]", "value": "down-regulation"}
    ]}
  ]
}
